Type in all cases: functional
Test [1] deals with Rattus norvegicus. Nature of the test: Effective dose required for protection of mast cells using mast cell stabilising assay at a compound concentration of 7.5 mg/kg po.
For test [2], the system named is Rattus norvegicus. In words: Effective dose required for inhibition of PCA at a compound concentration of 7.5 mg/kg po.
For test [3], the system named is Rattus norvegicus. In words: Tested for antiallergic activity by studying the protection of PCA (passive cutaneous anaphylaxis) after ip administration at a dose of 7.5 mg/kg in rats for four determinations. As to conditions: route intraperitoneal.
In test [4] the test system is Rattus norvegicus. In words: Tested for antiallergic activity by studying mast cell stabilising activity after ip administration at a dose of 0.1 mg/kg for five days in rats for four determinations. To be noted: route intraperitoneal.
Test [5] deals with Rattus norvegicus. In words: Tested for antiallergic activity by studying mast cell stabilising activity after ip administration at a dose of 0.25 mg/kg in rats for four determinations. To be noted: route intraperitoneal.
In test [6] the test system is Rattus norvegicus. Nature of the test: Tested for antiallergic activity by studying mast cell stabilising activity after ip administration at a dose of 0.2 mg/kg for five days in rats for four determinations. As to conditions: route intraperitoneal.
The subject of test [7] is Rattus norvegicus. Nature of the test: Tested for antiallergic activity by studying mast cell stabilising activity after ip administration at a dose of 0.5 mg/kg for five days in rats for four determinations. As to conditions: route intraperitoneal.
The subject of test [8] is Rattus norvegicus. Nature of the test: Tested for antiallergic activity by studying mast cell stabilising activity after ip administration at a dose of 1.0 mg/kg for five days in rats for four determinations. As to conditions: route intraperitoneal.
The subject of test [9] is Rattus norvegicus. Nature of the test: Tested for antiallergic activity by studying mast cell stabilising activity after ip administration at a dose of 2.5 mg/kg for five days in rats for four determinations. To be noted: route intraperitoneal.
The test system of test [10] is Rattus norvegicus. Nature of the test: Tested for antiallergic activity by studying the protection of PCA (passive cutaneous anaphylaxis) after ip administration at a dose of 0.5 mg/kg in rats for four determinations. As to conditions: route intraperitoneal.
In test [11] the test system is Rattus norvegicus. Nature of the test: Tested for antiallergic activity by studying the protection of PCA (passive cutaneous anaphylaxis) after ip administration at a dose of 10.0 mg/kg in rats for four determinations. To be noted: route intraperitoneal.
The subject of test [12] is Rattus norvegicus. Nature of the test: Tested for antiallergic activity by studying the protection of PCA (passive cutaneous anaphylaxis) after ip administration at a dose of 1 mg/kg in rats for four determinations. As to conditions: route intraperitoneal.
Test [13] has as its system Rattus norvegicus. Nature of the test: Tested for antiallergic activity by studying the protection of PCA (passive cutaneous anaphylaxis) after ip administration at a dose of 2.5 mg/kg in rats for four determinations. To be noted: route intraperitoneal.
The subject of test [14] is Rattus norvegicus. Nature of the test: Tested for antiallergic activity by studying the protection of PCA (passive cutaneous anaphylaxis) after ip administration at a dose of 5.0 mg/kg in rats for four determinations. As to conditions: route intraperitoneal.
Test [15] relates to Rattus norvegicus. In words: Tested for antiallergic activity by studying the protection of PCA (passive cutaneous anaphylaxis) after ip administration at a dose of 1.0 mg/kg in rats for four determinations. As to conditions: route intraperitoneal.
Test [16] has as its system Rattus norvegicus. Nature of the test: Tested for antiallergic activity by studying the protection of PCA (passive cutaneous anaphylaxis) after ip administration at a dose of 50 mg/kg in rats for four determinations. To be noted: route intraperitoneal.
Test [17] has as its system Rattus norvegicus. Nature of the test: Tested for antiallergic activity by studying mast cell stabilising activity after ip administration at a dose of 50 mg/kg in rats for four determinations. To be noted: route intraperitoneal.

Square brackets hold non-standard residues; d marks the D form. Peptide text beside a SMILES is read from it. NMeA = CN[C@@H](C)C(=O)O

Broadly, the ED50 is the dose that gives a 50% effect, or the effect in half of the subjects. A low value points to an effect at a small dose. Turning to `C[C@H](N)C(=O)N[C@@H](CC(=O)O)C(=O)N[C@@H](CO)C(=O)N[C@@H](CC(=O)O)C(=O)NCC(=O)N[C@@H](CCCCN)C(=O)O`, the ED50 is 3 mg/kg with Rattus norvegicus [1] and 0.9 mg/kg with Rattus norvegicus [2]. Moreover, the Protection in the test with Rattus norvegicus [3] is recorded as 86%; in the test on Rattus norvegicus [4], 34%; in the test with Rattus norvegicus [5] it was 64%; in the test on Rattus norvegicus [6], 41%; in the test on Rattus norvegicus [7], 47%; with Rattus norvegicus [8], 72%. The Protection is recorded as 79% in the test with Rattus norvegicus [9]; 44% with Rattus norvegicus [10]; 89% in the test on Rattus norvegicus [11]; 75% in the test on Rattus norvegicus [12]; 67% in the test with Rattus norvegicus [13]; 75% in the test with Rattus norvegicus [14]. In the test with Rattus norvegicus [15], this molecule showed a Protection of 52%.

With `C[C@@H](N)C(=O)N[C@@H](CC(=O)O)C(=O)N[C@@H](CO)C(=O)N[C@@H](CC(=O)O)C(=O)NCC(=O)N[C@@H](CCCCN)C(=O)O`, the Protection in the test with Rattus norvegicus [5] was 61%; with Rattus norvegicus [12] it was 64%.

Consider `CN[C@@H](C)C(=O)N[C@@H](CC(=O)O)C(=O)N[C@@H](CO)C(=O)N[C@@H](CC(=O)O)C(=O)NCC(=O)N[C@@H](CCCCN)C(=O)O` (H-[NMeA]DSDGK-OH), for which the figures for the Protection in the test on Rattus norvegicus [5] and in the test with Rattus norvegicus [12] were 60% and 67%, respectively.

As for `O=C([O-])c1cc(=O)c2c(OCC(O)COc3cccc4oc(C(=O)[O-])cc(=O)c34)cccc2o1.[Na+].[Na+]` [CROMOLYN SODIUM], the Protection in the test with Rattus norvegicus [16] is 77%; in the test with Rattus norvegicus [17], 84%.

With H-ADSDGK-NH2, the Protection in the test with Rattus norvegicus [5] turned out to be 61%; in the test on Rattus norvegicus [12], 68%.

Regarding H-AESDGK-OH, the Protection with Rattus norvegicus [5] is 63%; in the test with Rattus norvegicus [12] it was 45%.

Take H-AGSDGK-OH: the ED50 in the test on Rattus norvegicus [1] was 1 mg/kg; with Rattus norvegicus [2], 0.6 mg/kg. The Protection turned out to be 88% with Rattus norvegicus [3]; 39% in the test with Rattus norvegicus [4]; 78% with Rattus norvegicus [5]; 50% in the test with Rattus norvegicus [6]; 70% in the test with Rattus norvegicus [7]; 80% with Rattus norvegicus [8]. In addition, the Protection is 87% in the test with Rattus norvegicus [9]; 47% in the test with Rattus norvegicus [10]; 90% with Rattus norvegicus [11]; 78% with Rattus norvegicus [12]; 69% in the test with Rattus norvegicus [13]; 77% in the test with Rattus norvegicus [14]. This molecule also gave a Protection in the test on Rattus norvegicus [15] of 57%.
